Laboratory results: US20080214807A1, “Substituted Spiro Compounds and their Use for Producing Drugs” (Gruenenthal GmbH, priority 2005, published 2008)

Key:
[1] = biological target: T1, VR1 (human) (Homo sapiens, UniProt Q8NER1); test: Functional testing on vanilloid receptor VR1, FLIPR Ca2+ inflow assay (CHO K1 cells stably transfected with the VR1 gene); type: cell-based; conditions: test compound 10 μM; for inhibition at 10 µM / activation at 10 µM: CHO-K1; for inhibition at 10 µM / VR1 (human) (% inhibition compared to 10 μM CP): 5 min incubation, then 100 nM capsaicin, relative to maximum achievable inhibition with 10 μM capsaicin; for inhibition at 10 µM: read-out: VR1 (human) (% inhibition compared to 10 μM CP); for activation at 10 µM / VR1 (human) (% stimulation compared to 10 μM CP): Ca2+ inflow relative to signal of 10 μM capsaicin (CP); for activation at 10 µM: read-out: VR1 (human) (% stimulation compared to 10 μM CP)
T1 construct: expressed in transfected cells; host or cells: CHO K1 cells (ECACC)
T1 sequence (Q8NER1 whole entry): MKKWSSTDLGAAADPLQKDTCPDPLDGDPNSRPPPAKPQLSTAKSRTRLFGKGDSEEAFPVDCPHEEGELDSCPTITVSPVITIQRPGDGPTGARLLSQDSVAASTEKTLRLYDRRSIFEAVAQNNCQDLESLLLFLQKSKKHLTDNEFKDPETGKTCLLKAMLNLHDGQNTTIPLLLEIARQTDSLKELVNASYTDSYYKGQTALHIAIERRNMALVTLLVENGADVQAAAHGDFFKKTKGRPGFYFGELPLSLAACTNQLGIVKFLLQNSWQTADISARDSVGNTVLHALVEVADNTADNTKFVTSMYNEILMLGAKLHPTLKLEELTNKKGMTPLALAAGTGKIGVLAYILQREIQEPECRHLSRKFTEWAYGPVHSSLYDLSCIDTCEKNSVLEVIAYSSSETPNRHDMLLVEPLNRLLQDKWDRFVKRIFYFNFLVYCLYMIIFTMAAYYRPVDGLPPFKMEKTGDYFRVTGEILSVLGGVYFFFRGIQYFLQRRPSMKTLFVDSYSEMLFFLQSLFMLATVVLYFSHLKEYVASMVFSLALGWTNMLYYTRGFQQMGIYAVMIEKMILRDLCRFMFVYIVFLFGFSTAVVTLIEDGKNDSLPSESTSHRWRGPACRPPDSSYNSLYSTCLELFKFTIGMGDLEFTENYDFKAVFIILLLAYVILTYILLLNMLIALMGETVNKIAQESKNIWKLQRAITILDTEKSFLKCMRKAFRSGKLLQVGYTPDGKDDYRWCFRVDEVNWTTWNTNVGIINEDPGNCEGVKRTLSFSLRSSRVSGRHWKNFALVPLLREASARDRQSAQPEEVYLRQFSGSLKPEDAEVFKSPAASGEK
Text: II. Functional Testing Carried out on the Vanilloid Receptor (VR1)
The agonistic or antagonistic effect of the substances to be tested can also be determined on the vanilloid receptor (VR1) using the following assay. According to this assay, the Ca^2+ inflow is quantified through the channel using a Ca^2+-sensitive dye (type Fluo-4, Molecular Probes Europe BV, Leiden, Netherlands) in a fluorescent imaging plate reader (FLIPR, Molecular Devices, Sunnyvale, USA).
Chinese hamster ovary cells (CHO K1 cells, European Collection of Cell Cultures (ECACC) United Kingdom) were stably transfected with the VR1 gene. For functional testing, these cells were plated out on poly-D-lysine-coated black 96 well plates having a clear base (BD Biosciences, Heidelberg, Germany) at a density of 25,000 cells/well. The cells were incubated overnight at 37° C. and 5% CO2 in a culture medium (Ham's F12 nutrient mixture, 10-% by volume of FCS (foetal calf serum), 18 μg/ml L-proline). The next day the cells were incubated with Fluo-4 (Fluo-4 2 μM, 0.01% by volume of Pluronic F127, Molecular Probes in HBSS (Hank's buffered saline solution), Gibco Invitrogen GmbH, Karlsruhe, Germany) for 30 minutes at 37° C. Subsequently, the plates were washed 3 times with HBSS buffer and after further incubation for 15 minutes at room temperature used for Ca^2+ measurement in a FLI PR assay. The Ca^2+-dependent fluorescence was measured before and after the addition of the substances to be tested (λex wavelength=488 nm, λem=540 nm). Quantification was carried out by measuring the highest fluorescence intensity (FC, Fluorescence Counts) over time.
The FLIPR protocol consists of 2 substance additions. First the compounds to be tested (10 μM) were pipetted onto the cells and the Ca^2+ inflow was compared with the control (capsaicin 10 μM) (% activation based on the Ca^2+ signal after the addition of 10 μM capsaicin). After 5 minutes' incubation, 100 nM of capsaicin were administered and the Ca^2+ inflow was also determined.
Desensitising agonists and antagonists led to suppression of the Ca^2+ inflow. The % inhibition was calculated compared to the maximum achievable inhibition with 10 μM of capsaicin.

[2] = biological target: T2, rat-species vanilloid receptor 1 (VR1/TRPV1) (Rattus norvegicus, UniProt O35433); test: Functional testing on vanilloid receptor 1 (VR1/TRPV1), FLIPR Ca2+ inflow assay in rat dorsal root ganglia cells; type: cell-based; conditions: test compound 10 μM; for inhibition at 10 µM / VR1 (rat) (% inhibition compared to 10 μM CP): 5 min incubation, then 100 nM capsaicin, relative to maximum achievable inhibition with 10 μM capsaicin; for inhibition at 10 µM: read-out: VR1 (rat) (% inhibition compared to 10 μM CP); for activation at 10 µM / VR1 (rat) (% stimulation compared to 10 μM CP): Ca2+ inflow relative to signal of 10 μM capsaicin (CP); for activation at 10 µM: read-out: VR1 (rat) (% stimulation compared to 10 μM CP)
T2 construct: endogenous in cells; host or cells: primary cultured rat dorsal root ganglion cells
T2 sequence (O35433 whole entry): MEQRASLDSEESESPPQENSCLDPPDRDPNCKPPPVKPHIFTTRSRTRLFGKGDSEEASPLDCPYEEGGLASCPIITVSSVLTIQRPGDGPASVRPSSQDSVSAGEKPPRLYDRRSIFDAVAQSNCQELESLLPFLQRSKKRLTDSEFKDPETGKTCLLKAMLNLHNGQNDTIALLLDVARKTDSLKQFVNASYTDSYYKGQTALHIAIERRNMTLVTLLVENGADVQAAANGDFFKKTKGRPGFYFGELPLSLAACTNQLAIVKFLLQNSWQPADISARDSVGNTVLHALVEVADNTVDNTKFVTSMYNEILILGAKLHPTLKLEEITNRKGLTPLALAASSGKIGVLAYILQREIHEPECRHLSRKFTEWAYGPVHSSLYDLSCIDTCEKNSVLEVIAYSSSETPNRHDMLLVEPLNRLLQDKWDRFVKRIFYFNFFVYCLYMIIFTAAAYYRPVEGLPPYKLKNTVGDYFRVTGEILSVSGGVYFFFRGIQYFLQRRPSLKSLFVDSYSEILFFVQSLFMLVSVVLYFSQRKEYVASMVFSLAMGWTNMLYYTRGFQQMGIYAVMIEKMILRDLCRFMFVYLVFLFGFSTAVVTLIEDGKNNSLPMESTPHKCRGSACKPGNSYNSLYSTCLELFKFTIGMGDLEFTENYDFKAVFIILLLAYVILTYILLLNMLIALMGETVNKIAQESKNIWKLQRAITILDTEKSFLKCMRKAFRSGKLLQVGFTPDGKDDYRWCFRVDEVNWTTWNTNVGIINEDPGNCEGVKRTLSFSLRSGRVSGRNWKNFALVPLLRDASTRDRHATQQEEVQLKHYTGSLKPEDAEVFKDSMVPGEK
Text: I. Functional Testing Carried out on the Vanilloid Receptor 1 (VRI/TRPV1 Receptor)
The agonistic or antagonistic effect of the substances to be tested can be determined on the rat-species vanilloid receptor 1 (VR1/TRPV1) using the following assay. According to this assay, the Ca^2+ inflow is quantified through the receptor channel using a Ca^2+-sensitive dye (type Fluo-4, Molecular Probes Europe BV, Leiden, Netherlands) in a fluorescent imaging plate reader (FLIPR, Molecular Devices, Sunnyvale, USA).
Complete medium: 50 mL HAMS F12 nutrient mixture (Gibco Invitrogen GmbH, Karlsruhe, Germany) with
10% by volume of FCS (foetal calf serum, Gibco Invitrogen GmbH, Karlsruhe, Germany, […]);
2 mM L-glutamine (Sigma, Munich, Germany);
1% by weight of AA solution (antibiotic/antimyotic solution, PAA, Pasching, Austria) and 25 ng/ml NGF medium (2.5 S, Gibco Invitrogen GmbH, Karlsruhe, Germany)
Cell culture plate: Poly-D-lysine-coated, black 96 well plates having a clear base (96 well black/clear plate, BD Biosciences, Heidelberg, Germany) were additionally coated with laminin (Gibco Invitrogen GmbH, Karlsruhe, Germany), the laminin being diluted with PBS (Ca—Mg-free PBS, Gibco Invitrogen GmbH, Karlsruhe, Germany) to a concentration of 100 μg/mL. Aliquots having a laminin concentration of 100 μg/mL were removed and stored at −20° C. The aliquots were diluted with PBS in a ratio of 1:10 to 10 μg/mL laminin and in each case 50 μL of the solution were pipetted into a recess in the cell culture plate. The cell culture plates were incubated for at least two hours at 37° C., the excess solution was removed by suction-filtration and the recesses were each washed twice with PBS. The coated cell culture plates were stored with excess PBS which was not removed until just before the feeding of the cells.
Preparation of the Cells:
The vertebral column was removed from decapitated rats and placed immediately into cold HBSS buffer (Hank's buffered saline solution, Gibco Invitrogen GmbH, Karlsruhe, Germany), i.e. buffer located in an ice bath, mixed with 1% by volume (percent by volume) of an AA solution (antibiotic/antimyotic solution, PAA, Pasching, Austria). The vertebral column was cut longitudinally and removed together with fasciae from the vertebral canal. Subsequently, the dorsal root ganglia (DRG) were removed and again stored in cold HBSS buffer mixed with 1% by volume of an AA solution. The DRG, from which all blood remnants and spinal nerves had been removed, were transferred in each case to 500 μL of cold type 2 collagenase (PAA, Pasching, Austria) and incubated for 35 minutes at 37° C. After the addition of 2.5% by volume of trypsin (PAA, Pasching, Austria), incubation was continued for 10 minutes at 37° C. After complete incubation, the enzyme solution was carefully pipetted off and 500 μL of complete medium were added to each of the remaining DRG. The DRG were in each case suspended several times, drawn through cannulae No. 1, No. 12 and No. 16 using a syringe and transferred to a 50 mL Falcon tube which was filled up to 15 mL with complete medium. The contents of each Falcon tube was in each case filtered through a 70 μm Falcon filter element and centrifuged for 10 minutes at 1,200 rpm and room temperature. The resulting pellet was in each case taken up in 250 μL of complete medium and the number of cells determined.
The number of cells in the suspension was set to 3×10^5 per mL and 150 μL of this suspension were in each case introduced into a recess in the cell culture plates coated as described hereinbefore. In the incubator the plates were left for two to three days at 37° C., 5% by volume of CO2 and 95% relative humidity. […]

SMILES	inhibition at 10 µM [1]	activation at 10 µM [1]	inhibition at 10 µM [2]	activation at 10 µM [2]	VR1 (human) (% inhibition compared to 10 μM CP) [1]	VR1 (human) (% stimulation compared to 10 μM CP) [1]	VR1 (rat) (% inhibition compared to 10 μM CP) [2]	VR1 (rat) (% stimulation compared to 10 μM CP) [2]
O=C(Nc1ccccc1F)N1CCC2(CC1)CC(C(=O)N1CCN(c3ncccc3Cl)CC1)=NO2 [Example 1, 3-[4-(3-chloropyridin-2-yl)piperazine-1-carbonyl]-1-oxa-2,8-diazaspiro[4.5]dec-2-ene-8-carboxylic acid-(2-fluorophenyl)amide]	33.6%	4.85%	34.2%	6.37%	–	–	–	–
O=C(Nc1ccc(Cl)cn1)C1=NOC2(CCN(C(=O)Nc3ccccc3Cl)CC2)C1 [Example 9, 1-oxa-2,8-diazaspiro[4.5]dec-2-ene-3,8-dicarboxylic acid-8-[(2-chlorophenyl)amide]-3-[(5-chloropyridin-2-yl)amide]]	–	–	–	–	26.23%	−0.48%	45.63%	0.23%
O=C(Nc1cccc(Br)c1)N1CCC2(CC1)CC(C(=O)N1CCN(c3ncccc3Cl)CC1)=NO2 [Example 11, 3-[4-(3-chloropyridin-2-yl)piperazine-1-carbonyl]-1-oxa-2,8-diazaspiro[4.5]dec-2-ene-8-carboxylic acid-(3-bromophenyl)amide]	37.3%	-0.15%	41.3%	11.4%	–	–	–	–
COc1cccc(NC(=O)N2CCC3(CC2)CC(C(=O)NCc2ccc(OC)c(OC)c2)=NO3)c1 [Example 16, 1-oxa-2,8-diazaspiro[4.5]dec-2-ene-3,8-dicarboxylic acid-3-(3,4-dimethoxybenzylamide)-8-[(3-methoxyphenyl)amide]]	–	–	–	–	0.77%	0.40%	8.65%	0.00%
COc1cccc(NC(=O)N2CCC3(CC2)CC(C(=O)N2CCN(c4ncccc4Cl)CC2)=NO3)c1 [Example 17, 3-[4-(3-chloropyridin-2-yl)piperazine-1-carbonyl]-1-oxa-2,8-diazaspiro[4.5]dec-2-ene-8-carboxylic acid-(3-methoxyphenyl)amide]	53.7%	19.5%	46.9%	19.8%	–	–	–	–
COc1cccc(NC(=O)N2CCC3(CC2)CC(C(=O)Nc2ccc(Cl)cn2)=NO3)c1 [Example 18, 1-oxa-2,8-diazaspiro[4.5]dec-2-ene-3,8-dicarboxylic acid-3-[(5-chloropyridin-2-yl)amide]-8-[(3-methoxyphenyl)amide]]	–	–	–	–	11.17%	0.67%	34.24%	4.68%
O=C(Nc1cc(C(F)(F)F)ccc1Cl)N1CCC2(CC1)CC(C(=O)N1CCN(c3ncccc3Cl)CC1)=NO2 [Example 22, 3-[4-(3-chloropyridin-2-yl)piperazine-1-carbonyl]-1-oxa-2,8-diazaspiro[4.5]dec-2-ene-8-carboxylic acid-(2-chloro-5-trifluoromethylphenyl)amide]	8.37%	-0.66%	43.3%	2.79%	–	–	–	–
O=C(Nc1ccc(Cl)c(C(F)(F)F)c1)N1CCC2(CC1)CC(C(=O)N1CCN(c3ncccc3Cl)CC1)=NO2 [Example 28, 3-[4-(3-chloropyridin-2-yl)piperazine-1-carbonyl]-1-oxa-2,8-diazaspiro[4.5]dec-2-ene-8-carboxylic acid-(4-chloro-3-trifluoromethylphenyl)amide]	27.6%	0.08%	45.9%	0.63%	–	–	–	–
O=C(Nc1ccc(OC(F)(F)F)cc1)N1CCC2(CC1)CC(C(=O)N1CCN(c3ncccc3Cl)CC1)=NO2 [Example 34, 3-[4-(3-chloropyridin-2-yl)piperazine-1-carbonyl]-1-oxa-2,8-diazaspiro[4.5]dec-2-ene-8-carboxylic acid-(4-trifluoromethoxyphenyl)amide]	51.9%	-0.13%	86.2%	6.21%	–	–	–	–
O=C(Nc1ccc(Cl)cc1)N1CCC2(CC1)CC(C(=O)N1CCN(c3ncccc3Cl)CC1)=NO2 [Example 51, 3-[4-(3-chloropyridin-2-yl)piperazine-1-carbonyl]-1-oxa-2,8-diazaspiro[4.5]dec-2-ene-8-carboxylic acid-(4-chlorophenyl)amide]	63.4%	13.2%	98.8%	18.6%	–	–	–	–
COc1ccc(NC(=O)N2CCC3(CC2)CC(C(=O)N2CCN(c4ncccc4Cl)CC2)=NO3)cc1 [Example 52, 3-[4-(3-chloropyridin-2-yl)piperazine-1-carbonyl]-1-oxa-2,8-diazaspiro[4.5]dec-2-ene-8-carboxylic acid-(4-methoxyphenyl)amide]	45.1%	47.5%	55.8%	38.5%	–	–	–	–
CSc1cccc(NC(=O)N2CCC3(CC2)CC(C(=O)N2CCN(c4ncccc4Cl)CC2)=NO3)c1 [Example 56, 3-[4-(3-chloropyridin-2-yl)piperazine-1-carbonyl]-1-oxa-2,8-diazaspiro[4.5]dec-2-ene-8-carboxylic acid-(3-methylsulphanylphenyl)amide]	41.9%	5.26%	63.3%	30.2%	–	–	–	–
